In patent publication US20240300932A1, “N-PHENYLIMINE DERIVATIVE AND PREPARATION METHOD AND USE THEREOF” (Guizhou University, priority 2023, published 2024):

Key:
Assay in all cases: Post-emergence herbicidal activity test (stem and leaf spray, pot culture)
Type in all cases: in vivo
Conditions in all cases: 3 weeks after spraying
Abutilon theophrasti = tested on: Abutilon theophrasti
How it was run: (§1)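 Activity is given as a 0–5 grade of fresh weight growth control, scored three weeks after a single stem-and-leaf spray. Weeds in farmland loam were treated at the 2- to 3-leaf stage at 10, 5 and 2.5 g/mu, with methyl oleate added as synergist.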

Amaranthus retroflexus = tested on: Amaranthus retroflexus
How it was run: as §1

Echinochloa crusgalli = tested on: Echinochloa crusgalli
How it was run: as §1

Portulaca oleracea = tested on: Portulaca oleracea
How it was run: as §1

Setaria viridis = tested on: Setaria viridis
How it was run: as §1

Trifoliumre pensL. = tested on: Trifoliumre pensL.
How it was run: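 Rates of 10, 5 and 2.5 g/mu were applied in a single spray-tower treatment to 2–3-leaf plants, thinned to 10 per pot. Formulation: acetone solution, Tween 80, 1.5 L/ha methyl oleate synergist. Weed response assessed after 3 further greenhouse weeks; mean of three experiments.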

## O=C1C2=C(CCCC2)C(=O)N1c1cc(OCc2nnc(-c3ccccc3F)o2)c(Cl)cc1F [Compound B1]
Abutilon theophrasti; dosage 2.5 g/mu
  Post-emergence herbicidal activity, A. theophrasti (grade): 5 (Grade 5: the growth control rate is greater than or equal to 85%)
Abutilon theophrasti; dosage 5 g/mu
  Post-emergence herbicidal activity, A. theophrasti (grade): 5 (Grade 5: the growth control rate is greater than or equal to 85%)
Abutilon theophrasti; dosage 10 g/mu
  Post-emergence herbicidal activity, A. theophrasti (grade): 5 (Grade 5: the growth control rate is greater than or equal to 85%)
Amaranthus retroflexus; dosage 2.5 g/mu
  Post-emergence herbicidal activity, A. retroflexus (grade): 5 (Grade 5: the growth control rate is greater than or equal to 85%)
Amaranthus retroflexus; dosage 5 g/mu
  Post-emergence herbicidal activity, A. retroflexus (grade): 5 (Grade 5: the growth control rate is greater than or equal to 85%)
Amaranthus retroflexus; dosage 10 g/mu
  Post-emergence herbicidal activity, A. retroflexus (grade): 5 (Grade 5: the growth control rate is greater than or equal to 85%)
Echinochloa crusgalli; dosage 2.5 g/mu
  Post-emergence herbicidal activity, E. crusgalli (grade): 1 (Grade 1: the growth control rate is greater than or equal to 5% and less than 20%)
Echinochloa crusgalli; dosage 5 g/mu
  Post-emergence herbicidal activity, E. crusgalli (grade): 2 (Grade 2: the growth control rate is greater than or equal to 20% and less than 40%)
Echinochloa crusgalli; dosage 10 g/mu
  Post-emergence herbicidal activity, E. crusgalli (grade): 3 (Grade 3: the growth control rate is greater than or equal to 40% and less than 60%)
Portulaca oleracea; dosage 2.5 g/mu
  Post-emergence herbicidal activity, P. oleracea (grade): 5 (Grade 5: the growth control rate is greater than or equal to 85%)
Portulaca oleracea; dosage 5 g/mu
  Post-emergence herbicidal activity, P. oleracea (grade): 5 (Grade 5: the growth control rate is greater than or equal to 85%)
Portulaca oleracea; dosage 10 g/mu
  Post-emergence herbicidal activity, P. oleracea (grade): 5 (Grade 5: the growth control rate is greater than or equal to 85%)
Setaria viridis; dosage 2.5 g/mu
  Post-emergence herbicidal activity, S. viridis (grade): 2 (Grade 2: the growth control rate is greater than or equal to 20% and less than 40%)
Setaria viridis; dosage 5 g/mu
  Post-emergence herbicidal activity, S. viridis (grade): 3 (Grade 3: the growth control rate is greater than or equal to 40% and less than 60%)
Setaria viridis; dosage 10 g/mu
  Post-emergence herbicidal activity, S. viridis (grade): 4 (Grade 4: the growth control rate is greater than or equal to 60% and less than 85%)
Trifoliumre pensL.; dosage 2.5 g/mu
  Post-emergence herbicidal activity, Trifoliumre pensL. (grade): 5 (Grade 5: the growth control rate is greater than or equal to 85%)
Trifoliumre pensL.; dosage 5 g/mu
  Post-emergence herbicidal activity, Trifoliumre pensL. (grade): 5 (Grade 5: the growth control rate is greater than or equal to 85%)
Trifoliumre pensL.; dosage 10 g/mu
  Post-emergence herbicidal activity, Trifoliumre pensL. (grade): 5 (Grade 5: the growth control rate is greater than or equal to 85%)

## Cc1cccc(-c2nnc(COc3cc(N4C(=O)C5=C(CCCC5)C4=O)c(F)cc3Cl)o2)c1 [Compound B3, 2-(4-chloro-2-fluoro-5-(5-(3-tolyl)-1,3,4-oxadiazole-2-methoxy)phenyl)-4,5,6,7-tetrahydro-1H-isoindole-1,3(2H)-dione]
Abutilon theophrasti; dosage 2.5 g/mu
  Post-emergence herbicidal activity, A. theophrasti (grade): 5 (Grade 5: the growth control rate is greater than or equal to 85%)
Abutilon theophrasti; dosage 5 g/mu
  Post-emergence herbicidal activity, A. theophrasti (grade): 5 (Grade 5: the growth control rate is greater than or equal to 85%)
Abutilon theophrasti; dosage 10 g/mu
  Post-emergence herbicidal activity, A. theophrasti (grade): 5 (Grade 5: the growth control rate is greater than or equal to 85%)
Amaranthus retroflexus; dosage 2.5 g/mu
  Post-emergence herbicidal activity, A. retroflexus (grade): 5 (Grade 5: the growth control rate is greater than or equal to 85%)
Amaranthus retroflexus; dosage 5 g/mu
  Post-emergence herbicidal activity, A. retroflexus (grade): 5 (Grade 5: the growth control rate is greater than or equal to 85%)
Amaranthus retroflexus; dosage 10 g/mu
  Post-emergence herbicidal activity, A. retroflexus (grade): 5 (Grade 5: the growth control rate is greater than or equal to 85%)
Echinochloa crusgalli; dosage 2.5 g/mu
  Post-emergence herbicidal activity, E. crusgalli (grade): 1 (Grade 1: the growth control rate is greater than or equal to 5% and less than 20%)
Echinochloa crusgalli; dosage 5 g/mu
  Post-emergence herbicidal activity, E. crusgalli (grade): 2 (Grade 2: the growth control rate is greater than or equal to 20% and less than 40%)
Echinochloa crusgalli; dosage 10 g/mu
  Post-emergence herbicidal activity, E. crusgalli (grade): 3 (Grade 3: the growth control rate is greater than or equal to 40% and less than 60%)
Portulaca oleracea; dosage 2.5 g/mu
  Post-emergence herbicidal activity, P. oleracea (grade): 5 (Grade 5: the growth control rate is greater than or equal to 85%)
Portulaca oleracea; dosage 5 g/mu
  Post-emergence herbicidal activity, P. oleracea (grade): 5 (Grade 5: the growth control rate is greater than or equal to 85%)
Portulaca oleracea; dosage 10 g/mu
  Post-emergence herbicidal activity, P. oleracea (grade): 5 (Grade 5: the growth control rate is greater than or equal to 85%)
Setaria viridis; dosage 2.5 g/mu
  Post-emergence herbicidal activity, S. viridis (grade): 2 (Grade 2: the growth control rate is greater than or equal to 20% and less than 40%)
Setaria viridis; dosage 5 g/mu
  Post-emergence herbicidal activity, S. viridis (grade): 3 (Grade 3: the growth control rate is greater than or equal to 40% and less than 60%)
Setaria viridis; dosage 10 g/mu
  Post-emergence herbicidal activity, S. viridis (grade): 4 (Grade 4: the growth control rate is greater than or equal to 60% and less than 85%)
Trifoliumre pensL.; dosage 2.5 g/mu
  Post-emergence herbicidal activity, Trifoliumre pensL. (grade): 5 (Grade 5: the growth control rate is greater than or equal to 85%)
Trifoliumre pensL.; dosage 5 g/mu
  Post-emergence herbicidal activity, Trifoliumre pensL. (grade): 5 (Grade 5: the growth control rate is greater than or equal to 85%)
Trifoliumre pensL.; dosage 10 g/mu
  Post-emergence herbicidal activity, Trifoliumre pensL. (grade): 5 (Grade 5: the growth control rate is greater than or equal to 85%)

## O=C1C2=C(CCCC2)C(=O)N1c1cc(OCc2nnc(-c3ccccc3F)o2)c(Cl)cc1F [Compound B4]
Abutilon theophrasti; dosage 2.5 g/mu
  Post-emergence herbicidal activity, A. theophrasti (grade): 4 (Grade 4: the growth control rate is greater than or equal to 60% and less than 85%)
Abutilon theophrasti; dosage 5 g/mu
  Post-emergence herbicidal activity, A. theophrasti (grade): 5 (Grade 5: the growth control rate is greater than or equal to 85%)
Abutilon theophrasti; dosage 10 g/mu
  Post-emergence herbicidal activity, A. theophrasti (grade): 5 (Grade 5: the growth control rate is greater than or equal to 85%)
Amaranthus retroflexus; dosage 2.5 g/mu
  Post-emergence herbicidal activity, A. retroflexus (grade): 5 (Grade 5: the growth control rate is greater than or equal to 85%)
Amaranthus retroflexus; dosage 5 g/mu
  Post-emergence herbicidal activity, A. retroflexus (grade): 5 (Grade 5: the growth control rate is greater than or equal to 85%)
Amaranthus retroflexus; dosage 10 g/mu
  Post-emergence herbicidal activity, A. retroflexus (grade): 5 (Grade 5: the growth control rate is greater than or equal to 85%)
Echinochloa crusgalli; dosage 2.5 g/mu
  Post-emergence herbicidal activity, E. crusgalli (grade): 1 (Grade 1: the growth control rate is greater than or equal to 5% and less than 20%)
Echinochloa crusgalli; dosage 5 g/mu
  Post-emergence herbicidal activity, E. crusgalli (grade): 2 (Grade 2: the growth control rate is greater than or equal to 20% and less than 40%)
Echinochloa crusgalli; dosage 10 g/mu
  Post-emergence herbicidal activity, E. crusgalli (grade): 3 (Grade 3: the growth control rate is greater than or equal to 40% and less than 60%)
Portulaca oleracea; dosage 2.5 g/mu
  Post-emergence herbicidal activity, P. oleracea (grade): 4 (Grade 4: the growth control rate is greater than or equal to 60% and less than 85%)
Portulaca oleracea; dosage 5 g/mu
  Post-emergence herbicidal activity, P. oleracea (grade): 5 (Grade 5: the growth control rate is greater than or equal to 85%)
Portulaca oleracea; dosage 10 g/mu
  Post-emergence herbicidal activity, P. oleracea (grade): 5 (Grade 5: the growth control rate is greater than or equal to 85%)
Setaria viridis; dosage 2.5 g/mu
  Post-emergence herbicidal activity, S. viridis (grade): 2 (Grade 2: the growth control rate is greater than or equal to 20% and less than 40%)
Setaria viridis; dosage 5 g/mu
  Post-emergence herbicidal activity, S. viridis (grade): 3 (Grade 3: the growth control rate is greater than or equal to 40% and less than 60%)
Setaria viridis; dosage 10 g/mu
  Post-emergence herbicidal activity, S. viridis (grade): 4 (Grade 4: the growth control rate is greater than or equal to 60% and less than 85%)
Trifoliumre pensL.; dosage 2.5 g/mu
  Post-emergence herbicidal activity, Trifoliumre pensL. (grade): 5 (Grade 5: the growth control rate is greater than or equal to 85%)
Trifoliumre pensL.; dosage 5 g/mu
  Post-emergence herbicidal activity, Trifoliumre pensL. (grade): 5 (Grade 5: the growth control rate is greater than or equal to 85%)
Trifoliumre pensL.; dosage 10 g/mu
  Post-emergence herbicidal activity, Trifoliumre pensL. (grade): 5 (Grade 5: the growth control rate is greater than or equal to 85%)

## O=C1C2=C(CCCC2)C(=O)N1c1cc(OCc2nnc(-c3ccccc3Cl)o2)c(Cl)cc1F [Compound B5]
Abutilon theophrasti; dosage 2.5 g/mu
  Post-emergence herbicidal activity, A. theophrasti (grade): 5 (Grade 5: the growth control rate is greater than or equal to 85%)
Abutilon theophrasti; dosage 5 g/mu
  Post-emergence herbicidal activity, A. theophrasti (grade): 5 (Grade 5: the growth control rate is greater than or equal to 85%)
Abutilon theophrasti; dosage 10 g/mu
  Post-emergence herbicidal activity, A. theophrasti (grade): 5 (Grade 5: the growth control rate is greater than or equal to 85%)
Amaranthus retroflexus; dosage 2.5 g/mu
  Post-emergence herbicidal activity, A. retroflexus (grade): 5 (Grade 5: the growth control rate is greater than or equal to 85%)
Amaranthus retroflexus; dosage 5 g/mu
  Post-emergence herbicidal activity, A. retroflexus (grade): 5 (Grade 5: the growth control rate is greater than or equal to 85%)
Amaranthus retroflexus; dosage 10 g/mu
  Post-emergence herbicidal activity, A. retroflexus (grade): 5 (Grade 5: the growth control rate is greater than or equal to 85%)
Echinochloa crusgalli; dosage 2.5 g/mu
  Post-emergence herbicidal activity, E. crusgalli (grade): 1 (Grade 1: the growth control rate is greater than or equal to 5% and less than 20%)
Echinochloa crusgalli; dosage 5 g/mu
  Post-emergence herbicidal activity, E. crusgalli (grade): 2 (Grade 2: the growth control rate is greater than or equal to 20% and less than 40%)
Echinochloa crusgalli; dosage 10 g/mu
  Post-emergence herbicidal activity, E. crusgalli (grade): 3 (Grade 3: the growth control rate is greater than or equal to 40% and less than 60%)
Portulaca oleracea; dosage 2.5 g/mu
  Post-emergence herbicidal activity, P. oleracea (grade): 5 (Grade 5: the growth control rate is greater than or equal to 85%)
Portulaca oleracea; dosage 5 g/mu
  Post-emergence herbicidal activity, P. oleracea (grade): 5 (Grade 5: the growth control rate is greater than or equal to 85%)
Portulaca oleracea; dosage 10 g/mu
  Post-emergence herbicidal activity, P. oleracea (grade): 5 (Grade 5: the growth control rate is greater than or equal to 85%)
Setaria viridis; dosage 2.5 g/mu
  Post-emergence herbicidal activity, S. viridis (grade): 2 (Grade 2: the growth control rate is greater than or equal to 20% and less than 40%)
Setaria viridis; dosage 5 g/mu
  Post-emergence herbicidal activity, S. viridis (grade): 3 (Grade 3: the growth control rate is greater than or equal to 40% and less than 60%)
Setaria viridis; dosage 10 g/mu
  Post-emergence herbicidal activity, S. viridis (grade): 4 (Grade 4: the growth control rate is greater than or equal to 60% and less than 85%)
Trifoliumre pensL.; dosage 2.5 g/mu
  Post-emergence herbicidal activity, Trifoliumre pensL. (grade): 5 (Grade 5: the growth control rate is greater than or equal to 85%)
Trifoliumre pensL.; dosage 5 g/mu
  Post-emergence herbicidal activity, Trifoliumre pensL. (grade): 5 (Grade 5: the growth control rate is greater than or equal to 85%)
Trifoliumre pensL.; dosage 10 g/mu
  Post-emergence herbicidal activity, Trifoliumre pensL. (grade): 5 (Grade 5: the growth control rate is greater than or equal to 85%)
